In article PMC3843672, “Resistance to Degradation and Cellular Distribution are Important Features for the Antitumor Activity of Gomesin” (PLoS ONE, 2013):
pIC50: −log10 of the molar value. Where a SMILES comes first, the peptide text is derived from it. [ ]: non-standard residue; d: D form. d(pGlu) = O=C1CC[C@H](C(=O)O)N1; pGlu = O=C1CC[C@@H](C(=O)O)N1

What was measured:
[1] = test system: B16 F10 mouse melanoma cell line; assay type: cell-based; conditions: 24 h
Protocol: B16 F10 mouse melanoma cell line was cultured in RPMI medium supplemented with 10% fetal bovine serum (FBS; Gibco, USA), 10 U/ml penicillin and 10 µg/ml streptomycin. Cells were cultured in a humidified incubator containing 2.5% CO2 at 37°C.
B16 cells were incubated in 96-well microtiter plates in RPMI medium supplemented with 10% FBS until reach the semi-confluence and then treated with different concentrations of Gm and its analogues for 24 h. To investigate the mechanisms of Gm-induced cell death, B-16 cells were also pre-incubated with 40 µM cytochalasin D (Tocris, USA); 20 µM necrostatin-1 (Tocris, USA), 10 µM Z-VAD (Tocris, USA), 5 mM MβCD (Tocris, USA), and 100 µM chloroquine (Tocris, USA) for 1 h. Cell viability was determined using the standard reduction of the tetrazolium salt 3-(4,5-dimethylthiazol-2-yl)-2,5-diphenyltetrazolium bromide (MTT). The results were expressed relative to control cell viability (100%).

B16 cells = experiment: Peptide internalized into cells, biotinylated peptides, flow cytometry; assay type: cell-based, mouse; conditions: for internal presence of peptide after 24 h: 2 µM biotinylated peptides; for Max. Internal Fluorescence: biotinylated peptides used, 2 µM, B16 cells, streptavidin-Alexa 647 (FL4) after fixation and saponin permeabilization, maximum over time course, mean ± SEM, three independent experiments
Protocol: Cells were treated with the 2 µM biotinylated peptide. Then, the melanoma cells (5×10^5 for flow cytometry or 5×10^3 cell seeded for confocal microscopy) were labeled with streptavidin-Alexa 488 (Invitrogen, USA) for 30 min at 4°C and washed with PBS. The cells were fixed with a solution of 2% paraformaldehyde for 30 min, washed with 0.1 M glycin, and permeabilized with 0.01% saponin. Then, the cells were labeled with streptavidin-Alexa 647 (Invitrogen, USA). For flow cytometry, the cells were extracted using PBS with 5 mM EDTA previously to fixation. The quantification of label of external biotynilated peptide, and intracellular peptide were performed by flow cytometry or confocal microscopy. For flow cytometry the cells were excited using argon laser (488 nm), and diode laser (633 nm). The emission was collected in FL-1 and FL-4 channel. A total of 10,000 events were collected per sample. For confocal microscopy, nuclei were stained with DAPI. Confocal microscopy analyses were performed with a confocal laser scanning microscope equipped with a Plan-Apochromat ×63 objective under oil immersion (Zeiss, LSM780). The pinhole device was adjusted to capture fluorescence of one airy unit. The images correspond to single focal plane. Streptavidin-Alexa Fluor 488 were excited using an argon laser (λEx. = 488 nm, λEm. = 505–550 nm), streptavidin-Alexa Fluor 647 was excited using a HeNe laser (λEx. = 633 nm, λEm. = 640–710 nm) and DAPI was excited using a multiphoton laser (Coherent) (λEx. = 750 nm, λEm. = 380–460 nm). Unviable cells were excluded with propidium iodide (PI) label.
We quantified the Gm and analogues binding to the cellular membrane, and their internalization using their biotinylated counterpart. […] Unviable cells were excluded by PI label (Figure S2). External peptides labeled with streptavidin Alexa Fluor 488 were identified for the quantification of the green fluorescence (FL1 channel), and internal peptides labeled with streptavidin Alexa Fluor 647 were identified for the quantification of the deep red fluorescence (FL4 channel), after permeabilization of cellular membrane, by Flow cytometry. […] On the other hand, the peptides that present lower cytotoxicity were not retained after 24 h (Figure 3A-F). However, a direct relation between binding, peptide entrance, and cytotoxicity effect was not full observed, the entrance into cells seem to be important to the action of several AMPs. To verify the participation of the entry of peptide with cytotoxicity cholesterol level cholesterol level was reduced incubating the cells with MβCD for 1 h, which increase the membrane fluidity. As expected, the treatment of the cells with MβCD increases the entry of peptide (Figure 3G) and increases the cytotoxicity of the peptides, except the analogue [Thr^2,6,11,15]-Gm (Figure 3H).

[2] = Resistance to degradation by lysosomal enzymes (LC/ESI-MS); assay type: in vitro ADME; conditions: 37°C; for resistance to lysosomal enzyme degradation (in words): sonicated cells, pH 5 Tris buffer, different times, LC/ESI-MS (Figure 2B); for Peptide Degradation: sonicated cultured cells in pH 5 Tris buffer (lysosomal enzymes), incubation 1–14 h, starting peptide concentration 10^−4 M taken as 100%, LC/ESI-MS, mean ± SEM
Protocol: The cultured cells were resuspended using pH 5 Tris buffer, and then sonicated. Protein concentration was measured using the RC DC protein assay kit (Bio-Rad, CA, USA) according to the manufacturer’s instructions. The peptides were incubated with this protein solution for 1–14 h, and its stability was evaluated by reversed-phase liquid chromatography coupled with an electrospray ionization mass spectrometer (LC/ESI-MS).
Figure 2 Lysosomal enzymes participate in the cytotoxic reduction activities of the Gm analogues. (A, C and D) Cell viability was assessed by the MTT reduction test. (A) Cells were incubated with cytoskeletal inhibitor (cytochalasin D), and lysosomal inhibitor (chloroquine) for 1 h before to stimulation by Gm, and its analogues for 24 h. Chloroquine potentiated the cytotoxicity of peptides. (B) Since chloroquine was able to potentiate the cytotoxicity of the peptides, resistance to degradation of lysosomal enzymes was evaluated by LC/ESI-MS. Peptides were incubated at 37°C for different times. (C) Cells were incubated with the IC50 concentration for each peptide. Cytotoxic activities after 24 and 72 h of the peptide incubation were compared.

internal presence of peptide after 24 h (B16 cells)	SMILES	pIC50 [1]	fold less potent than Gm ([1]; B16 cells, MTT, ratio of potencies) [fold]	Max. Internal Fluorescence (B16 cells) [AU]	resistance to lysosomal enzyme degradation (in words) [2]	Peptide Degradation [2] [%]
internal presence	CC(C)C[C@H](NC(=O)[C@H](CCCNC(=N)N)NC(=O)[C@H](CCCNC(=N)N)NC(=O)[C@@H](NC(=O)[C@@H]1CCC(=O)N1)[C@@H](C)O)C(=O)N[C@H](C(=O)N[C@@H](Cc1ccc(O)cc1)C(=O)N[C@@H](CCCCN)C(=O)N1CCC[C@@H]1C(=O)N[C@@H](CCCNC(=N)N)C(=O)N[C@H](C(=O)N[C@H](C(=O)N[C@H](C(=O)N[C@@H](Cc1ccc(O)cc1)C(=O)N[C@H](C(=O)N[C@@H](CCCNC(=N)N)C(=O)NCC(=O)N[C@@H](CCCNC(=N)N)C(N)=O)[C@@H](C)O)[C@@H](C)O)C(C)C)[C@@H](C)O)[C@@H](C)O [[Thr^2,6,11,15, D-Pro^9]-Gm] ([pGlu]TRRLTYK[dP]RTVTYTRGR-NH2)	4.05		1165±27	stable to enzymatic degradation	16±1
	CC(C)C[C@H](NC(=O)[C@H](CCCNC(=N)N)NC(=O)[C@H](CCCNC(=N)N)NC(=O)[C@@H](NC(=O)[C@@H]1CCC(=O)N1)[C@@H](C)O)C(=O)N[C@H](C(=O)N[C@@H](Cc1ccc(O)cc1)C(=O)N[C@@H](CCCCN)C(=O)N[C@@H](CCC(N)=O)C(=O)N[C@@H](CCCNC(=N)N)C(=O)N[C@H](C(=O)N[C@H](C(=O)N[C@H](C(=O)N[C@@H](Cc1ccc(O)cc1)C(=O)N[C@H](C(=O)N[C@@H](CCCNC(=N)N)C(=O)NCC(=O)N[C@@H](CCCNC(=N)N)C(N)=O)[C@@H](C)O)[C@@H](C)O)C(C)C)[C@@H](C)O)[C@@H](C)O [[Thr^2,6,11,15]-Gm] ([pGlu]TRRLTYKQRTVTYTRGR-NH2)	< 3.70		753±175	most sensitive peptides to degradation	43±4
internal presence	CC(C)C[C@@H](NC(=O)[C@@H](CCCNC(=N)N)NC(=O)[C@@H](CCCNC(=N)N)NC(=O)[C@H](NC(=O)[C@H]1CCC(=O)N1)[C@H](C)O)C(=O)N[C@@H](C(=O)N[C@H](Cc1ccc(O)cc1)C(=O)N[C@H](CCCCN)C(=O)N1CCC[C@H]1C(=O)N[C@H](CCCNC(=N)N)C(=O)N[C@@H](C(=O)N[C@@H](C(=O)N[C@@H](C(=O)N[C@H](Cc1ccc(O)cc1)C(=O)N[C@@H](C(=O)N[C@H](CCCNC(=N)N)C(=O)NCC(=O)N[C@H](CCCNC(=N)N)C(N)=O)[C@H](C)O)[C@H](C)O)C(C)C)[C@H](C)O)[C@H](C)O [[D-Thr^2,6,11,15, Pro^9]-D-Gm] ([d(pGlu)][dT][dR][dR][dL][dT][dY][dK]P[dR][dT][dV][dT][dY][dT][dR]G[dR]-NH2)	4.12		2751±190	little affected by lysosomal enzymes	15±2
	CC(C)C[C@H](NC(=O)[C@H](CCCNC(=N)N)NC(=O)[C@H](CCCNC(=N)N)NC(=O)[C@H](CO)NC(=O)[C@@H]1CCC(=O)N1)C(=O)N[C@@H](CO)C(=O)N[C@@H](Cc1ccc(O)cc1)C(=O)N[C@@H](CCCCN)C(=O)N[C@@H](CCC(N)=O)C(=O)N[C@@H](CCCNC(=N)N)C(=O)N[C@@H](CO)C(=O)N[C@H](C(=O)N[C@H](C(=O)N[C@@H](Cc1ccc(O)cc1)C(=O)N[C@@H](CO)C(=O)N[C@@H](CCCNC(=N)N)C(=O)NCC(=O)N[C@@H](CCCNC(=N)N)C(N)=O)[C@@H](C)O)C(C)C [[Ser^2,6,11,15]-Gm] ([pGlu]SRRLSYKQRSVTYSRGR-NH2)	< 3.70		305±65	most sensitive peptides to degradation	47±5

SMILES	internal presence of peptide after 24 h (B16 cells)	pIC50 [1]	fold less potent than Gm ([1]; B16 cells, MTT, ratio of potencies) [fold]	Max. Internal Fluorescence (B16 cells) [AU]	resistance to lysosomal enzyme degradation (in words) [2]	Peptide Degradation [2] [%]
CC(C)C[C@@H](NC(=O)[C@@H](CCCNC(=N)N)NC(=O)[C@@H](CCCNC(=N)N)NC(=O)[C@H](NC(=O)[C@H]1CCC(=O)N1)[C@H](C)O)C(=O)N[C@@H](C(=O)N[C@H](Cc1ccc(O)cc1)C(=O)N[C@H](CCCCN)C(=O)N[C@H](CCC(N)=O)C(=O)N[C@H](CCCNC(=N)N)C(=O)N[C@@H](C(=O)N[C@@H](C(=O)N[C@@H](C(=O)N[C@H](Cc1ccc(O)cc1)C(=O)N[C@@H](C(=O)N[C@H](CCCNC(=N)N)C(=O)NCC(=O)N[C@H](CCCNC(=N)N)C(N)=O)[C@H](C)O)[C@H](C)O)C(C)C)[C@H](C)O)[C@H](C)O [[D-Thr^2,6,11,15]-D-Gm] ([d(pGlu)][dT][dR][dR][dL][dT][dY][dK][dQ][dR][dT][dV][dT][dY][dT][dR]G[dR]-NH2)	internal presence	4.60	3.5	602±12	little affected by lysosomal enzymes	12±2
